Legend:
[1] = system: Monocotyledonous and dicotyledonous test plants; test: Herbicidal action before emergence of the plants (pre-emergence action), greenhouse pot test, 9-level rating after 4 weeks; assay type: in vivo; set-up: key: 9-level scale: 1 = complete damage, 9 = no effect; details: 250 g/ha, rated after 4 weeks, 9-level scale
Outline: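 Compounds applied pre-emergence as a spray (500 l water/ha) of aqueous suspension or emulsion onto soil immediately after sowing mono- and dicot species in pots. Greenhouse-grown; damage rated after 4 weeks on a 9-level scale (1=complete damage, 9=no effect).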

[2] = system: Monocotyledonous and dicotyledonous test plants; test: Post-emergence herbicidal action, greenhouse pot test, sprayed at the 2- to 3-leaf stage, 9-level rating after 2 to 3 weeks; assay type: in vivo; set-up: key: 9-level scale: 1 = complete damage, 9 = no effect; details: 250 g/ha, rated after 2 to 3 weeks, 9-level scale
Outline: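 Plants grown in standard soil in pots; test substances sprayed at the 2- to 3-leaf stage at optimum dosage (500 l water/ha) as aqueous suspension or emulsion from formulated concentrates. Plants then kept in the greenhouse under optimum conditions; rated after 2 to 3 weeks on a 9-level scale (1=complete damage, 9=no effect).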

## O=C(C1=C(O)C2CCC(C2)C1=O)c1ccc(C(F)(F)F)nc1COCC1CO1 (stereo not shown) [1.015]
other
  melting point: 54 to 56 °C

## O=C(C1=C(O)C2CCC(C2)C1=O)c1ccc(C(F)(F)F)nc1COCc1ccccc1 (stereo not shown) [1.068]
other
  melting point: 68 to 69 °C

## COC(=O)COCc1nc(C(F)(F)F)ccc1C(=O)C1=C(O)C2CCC(C2)C1=O (stereo not shown) [1.031]
other
  melting point: 106 to 107 °C

## O=C(c1ccc(C(F)(F)F)nc1COCCCl)C1C(=O)C2CCC(C2)C1=O (stereo not shown) [1.080]
other
  melting point: 63 to 64 °C

## COCCOCc1nc(C(F)(F)F)ccc1C(=O)C1=C(O)C(C)(C)C(=O)C(C)(C)C1=O [1.012]
other
  melting point: 99 to 100 °C

## O=C(OCCOCc1nc(C(F)(F)F)ccc1C(=O)C1=C(OC(=O)c2ccccc2)C2CCC(C2)C1=O)c1ccccc1 (stereo not shown) [1.055]
other
  melting point: 96 to 98 °C

## CN(Cc1nc(C(F)(F)F)ccc1C(=O)C1=C(O)C2CCC(C2)C1=O)S(C)(=O)=O (stereo not shown) [1.090]
other
  melting point: 149 to 150 °C

## C=CCOCc1nc(C(F)(F)F)ccc1C(=O)C1=C(O)C2CCC(C2)C1=O (stereo not shown) [1.018]
other
  melting point: 53 to 55 °C

## COCCOCc1nc(C(F)(F)F)ccc1C(=O)C1C(=O)CCC2(CC2)C1=O (stereo not shown) [1.070]
other
  melting point: 40 to 42 °C

## COCOCc1nc(C(F)(F)F)ccc1C(=O)C1=C(O)C2CCC(C2)C1=O (stereo not shown) [1.017]
other
  melting point: 95 to 98 °C

## COc1ccccc1OCc1nc(C(F)(F)F)ccc1C(=O)C1=C(O)C2CCC(C2)C1=O (stereo not shown) [1.028]
other
  melting point: 113 to 115 °C

## CC(=O)OCCOCc1nc(C(F)(F)F)ccc1C(=O)C1=C(O)C2CCC(C2)C1=O (stereo not shown) [1.050]
other
  melting point: 90 to 93 °C

## CCOCc1nc(C(F)(F)F)ccc1C(=O)c1cnn(C)c1O [1.020]
other
  melting point: 32 to 33 °C

## CCCOCCOCc1nc(C(F)(F)F)ccc1C(=O)C1=C(O)C2CCC(C2)C1=O (stereo not shown) [1.052]
other
  melting point: 41 to 43 °C

## O=C(c1ccc(C(F)(F)F)nc1COCC1CCCO1)C1C(=O)C2CCC(C2)C1=O (stereo not shown) [1.073]
other
  melting point: 46 to 47 °C

## COCc1nc(C(F)(F)F)ccc1C(=O)c1c(C)nn(C)c1O [1.001]
other
  melting point: 138 to 140 °C

## CN(Cc1nc(C(F)(F)F)ccc1C(=O)c1cnn(C)c1O)S(C)(=O)=O [1.091]
other
  melting point: 110 to 112 °C

## CC(=O)OCc1nc(C(F)(F)F)ccc1C(=O)C1=C(O)C2CCC(C2)C1=O.[K+] (stereo not shown)
other
  melting point: 145 to 150 °C

## CC(C)(C)C(=O)OC1=C(C(=O)c2ccc(C(F)(F)F)nc2COCCO)C(=O)C2CCC1C2 (stereo not shown) [1.059]
other
  melting point: 79 to 81 °C

## C#CCOCc1nc(C(F)(F)F)ccc1C(=O)C1=C(O)C2CCC(C2)C1=O (stereo not shown) [1.016]
other
  melting point: 71 to 74 °C

## O=C(C1=C(O)C2CCC(C2)C1=O)c1ccc(C(F)(F)F)nc1COCCOCC(F)(F)F (stereo not shown) [1.066]
other
  melting point: 40 to 44 °C

## CCOCCOCc1nc(C(F)(F)F)ccc1C(=O)c1cnn(C)c1O [1.022]
other
  melting point: 38 to 39 °C

## O=C(C1=C(O)C2CCC(C2)C1=O)c1ccc(C(F)(F)F)nc1COCC1CCCCO1 (stereo not shown) [A63-B52]
[1]
  Pre-emergence action rating, Abutilon: 5
  Pre-emergence action rating, Amaranthus: 3
  Pre-emergence action rating, Digitaria: 3
  Pre-emergence action rating, Echino.: 1
  Pre-emergence action rating, Panicum: 2
[2]
  Post-emergence action rating, Abutilon: 2
  Post-emergence action rating, Amaranth: 2
  Post-emergence action rating, Chenop.: 2
  Post-emergence action rating, Digitaria: 2
  Post-emergence action rating, Echino.: 2
  Post-emergence action rating, Ipopur.: 2
  Post-emergence action rating, Panicum: 1
  Post-emergence action rating, Xanth.: 2

## C=CCOCCOCc1nc(C(F)(F)F)ccc1C(=O)C1=C(O)C2CCC(C2)C1=O (stereo not shown) [A840-B52]
[1]
  Pre-emergence action rating, Abutilon: 2
  Pre-emergence action rating, Amaranthus: 2
  Pre-emergence action rating, Chenop.: 1
  Pre-emergence action rating, Digitaria: 2
  Pre-emergence action rating, Echino.: 2
  Pre-emergence action rating, Panicum: 1
[2]
  Post-emergence action rating, Abutilon: 3
  Post-emergence action rating, Amaranth: 2
  Post-emergence action rating, Chenop.: 1
  Post-emergence action rating, Digitaria: 3
  Post-emergence action rating, Echino.: 4
  Post-emergence action rating, Ipopur.: 3
  Post-emergence action rating, Panicum: 2
  Post-emergence action rating, Xanth.: 3

## O=C(C1=C(O)C2CCC(C2)C1=O)c1ccc(C(F)(F)F)nc1COCCCOCc1ccccc1 (stereo not shown) [1.069]
other
  melting point: 78 to 80 °C

## COCCOCc1nc(C(F)(F)F)ccc1C(=O)C1=C(O)C(C)(C)ON(C)C1=O [A10-B25]
[1]
  Pre-emergence action rating, Abutilon: 1
  Pre-emergence action rating, Amaranthus: 1
  Pre-emergence action rating, Chenop.: 1
  Pre-emergence action rating, Digitaria: 1
  Pre-emergence action rating, Echino.: 2
  Pre-emergence action rating, Panicum: 1
[2]
  Post-emergence action rating, Abutilon: 3
  Post-emergence action rating, Amaranth: 2
  Post-emergence action rating, Chenop.: 1
  Post-emergence action rating, Digitaria: 4
  Post-emergence action rating, Echino.: 4
  Post-emergence action rating, Ipopur.: 3
  Post-emergence action rating, Panicum: 3
  Post-emergence action rating, Xanth.: 3

## O=C(C1=C(O)C2CCC(C2)C1=O)c1ccc(C(F)(F)F)nc1COCCOC1CCCCO1 (stereo not shown) [A842-B52]
[1]
  Pre-emergence action rating, Abutilon: 2
  Pre-emergence action rating, Amaranthus: 2
  Pre-emergence action rating, Chenop.: 1
  Pre-emergence action rating, Digitaria: 6
  Pre-emergence action rating, Echino.: 2
  Pre-emergence action rating, Panicum: 1
[2]
  Post-emergence action rating, Abutilon: 3
  Post-emergence action rating, Amaranth: 2
  Post-emergence action rating, Chenop.: 1
  Post-emergence action rating, Digitaria: 3
  Post-emergence action rating, Echino.: 5
  Post-emergence action rating, Ipopur.: 3
  Post-emergence action rating, Panicum: 3
  Post-emergence action rating, Xanth.: 3

## COCCOCc1nc(C(F)(F)F)ccc1C(=O)c1cnn(C)c1O [A10-C5]
[1]
  Pre-emergence action rating, Abutilon: 1
  Pre-emergence action rating, Amaranthus: 1
  Pre-emergence action rating, Chenop.: 1
  Pre-emergence action rating, Digitaria: 3
  Pre-emergence action rating, Echino.: 1
  Pre-emergence action rating, Panicum: 2
[2]
  Post-emergence action rating, Abutilon: 2
  Post-emergence action rating, Amaranth: 1
  Post-emergence action rating, Chenop.: 1
  Post-emergence action rating, Digitaria: 2
  Post-emergence action rating, Echino.: 2
  Post-emergence action rating, Ipopur.: 2
  Post-emergence action rating, Panicum: 2
  Post-emergence action rating, Xanth.: 2

## COCc1nc(C(F)(F)F)ccc1C(=O)c1cnn(C)c1O [1.019]
other
  melting point: 32 to 34 °C

## CC(C)(C)C(=O)OCc1nc(C(F)(F)F)ccc1C(=O)C1=C(O)C2CCC(C2)C1=O (stereo not shown) [A839-B52]
[1]
  Pre-emergence action rating, Abutilon: 1
  Pre-emergence action rating, Amaranthus: 1
  Pre-emergence action rating, Chenop.: 1
  Pre-emergence action rating, Digitaria: 3
  Pre-emergence action rating, Echino.: 2
  Pre-emergence action rating, Panicum: 1
[2]
  Post-emergence action rating, Abutilon: 2
  Post-emergence action rating, Amaranth: 2
  Post-emergence action rating, Chenop.: 1
  Post-emergence action rating, Digitaria: 2
  Post-emergence action rating, Echino.: 2
  Post-emergence action rating, Ipopur.: 2
  Post-emergence action rating, Panicum: 2
  Post-emergence action rating, Xanth.: 2

## COCc1nc(C(F)(F)F)ccc1C(=O)c1cnn(C)c1O [A1-C5]
[1]
  Pre-emergence action rating, Abutilon: 2
  Pre-emergence action rating, Amaranthus: 2
  Pre-emergence action rating, Chenop.: 1
  Pre-emergence action rating, Digitaria: 2
  Pre-emergence action rating, Echino.: 1
  Pre-emergence action rating, Panicum: 2
[2]
  Post-emergence action rating, Abutilon: 2
  Post-emergence action rating, Amaranth: 2
  Post-emergence action rating, Chenop.: 1
  Post-emergence action rating, Digitaria: 2
  Post-emergence action rating, Echino.: 2
  Post-emergence action rating, Ipopur.: 2
  Post-emergence action rating, Panicum: 4
  Post-emergence action rating, Xanth.: 4

Reference: patent publication US7378375B1, “Substituted pyridine herbicides” (Syngenta Crop Protection, Inc., priority 2000, dated 2008)
